The inhibition is the relative decrease from the control value, in per cent.

Results on 21 molecules are retold here after the Kinase Knowledgebase extract (Sharma et al. 2016).

Molecules are shown by their SMILES.

The assay has as its target CDK2 (human) (UniProt P24941). As to the kind of experiment: Enzyme Assay. The following applies: concentration not given here.
As for `COc1ccc(C2(C(=O)N3CCC(Nc4nc(N)c(C(=O)c5c(F)cccc5F)s4)CC3)CC2)cc1`, the inhibition was 37%.

On to `Nc1nc(NC2CCN(C(=O)C3(c4ccc(Cl)cc4)CC3)CC2)sc1C(=O)c1c(F)cccc1F`, for which the inhibition was -1%.

On to `Nc1nc(NC2CCN(C(=O)c3cnccc3C(F)(F)F)CC2)sc1C(=O)c1c(F)cccc1F`, for which the inhibition is 18%.

With `CO[C@H](C(=O)N1CCC(Nc2nc(N)c(C(=O)c3c(F)cccc3F)s2)CC1)c1ccccc1`, the inhibition was determined as 50%.

For `CCOc1ccccc1CC(=O)N1CCC(Nc2nc(N)c(C(=O)c3c(F)cccc3F)s2)CC1`, the inhibition stood at 71%.

Consider `CC(=O)CCC(=O)N1CCC(Nc2nc(N)c(C(=O)c3c(F)cccc3F)s2)CC1`, for which the inhibition was found to be 15%.

For `Nc1nc(NC2CCN(C(=O)c3nc4ccccc4nc3O)CC2)sc1C(=O)c1c(F)cccc1F`, the inhibition was 12%.

`CC(C)CC(O)C(=O)N1CCC(Nc2nc(N)c(C(=O)c3c(F)cccc3F)s2)CC1` (stereo unspecified): the inhibition came to 57%.

Turning to `N#Cc1ccc(NCC(=O)N2CCC(Nc3nc(N)c(C(=O)c4c(F)cccc4F)s3)CC2)cc1`, the inhibition is 22%.

As to `COC(=O)[C@H]1CC=CC[C@H]1C(=O)N1CCC(Nc2nc(N)c(C(=O)c3c(F)cccc3F)s2)CC1`, the inhibition is 22%.

Regarding `CCOC(=O)CCCC(=O)N1CCC(Nc2nc(N)c(C(=O)c3c(F)cccc3F)s2)CC1`, the inhibition was -6%.

On to `NC(=S)Nc1cccc(C(=O)N2CCC(Nc3nc(N)c(C(=O)c4c(F)cccc4F)s3)CC2)c1`, for which the inhibition is 75%.

On to `Cc1ccc(CCCC(=O)N2CCC(Nc3nc(N)c(C(=O)c4c(F)cccc4F)s3)CC2)c(C)c1`, for which the inhibition amounted to 35%.

Take `Cc1ccc(C(=O)N2CCC(Nc3nc(N)c(C(=O)c4c(F)cccc4F)s3)CC2)cn1`: the inhibition amounted to 20%.

As for `CSCCC(=O)N1CCC(Nc2nc(N)c(C(=O)c3c(F)cccc3F)s2)CC1`, the inhibition worked out at 42%.

For the molecule `Nc1nc(NC2CCN(C(=O)C3(O)CC3)CC2)sc1C(=O)c1c(F)cccc1F`, the inhibition was 46%.

As for `CCCCC[C@H]1CC[C@H](C(=O)N2CCC(Nc3nc(N)c(C(=O)c4c(F)cccc4F)s3)CC2)CC1`, the inhibition is 14%.

`COC(=O)CCC(=O)N1CCC(Nc2nc(N)c(C(=O)c3c(F)cccc3F)s2)CC1`: the inhibition is 12%.

Regarding `Nc1nc(NC2CCN(C(=O)c3ccc[n+]([O-])c3)CC2)sc1C(=O)c1c(F)cccc1F`, the inhibition turned out to be 46%.

`Cc1ccnc(SCC(=O)N2CCC(Nc3nc(N)c(C(=O)c4c(F)cccc4F)s3)CC2)n1`: the inhibition was found to be 86%.

As for `Cc1ccccc1CC(=O)N1CCC(Nc2nc(N)c(C(=O)c3c(F)cccc3F)s2)CC1`, the inhibition came out at 56%.
